Measured values: US5418150A, “Method of cleaving DNA” (priority 1993, dated 1995)
Where two headings read alike, the source gives them in different places.

Assays:
Nae I [1] = target: T1, Nae I (Lentzea aerocolonigenes, UniProt P50187); assay: Activation of Nae I cleavage of M13mp18 RFI DNA; format: biochemical, Nocardia aerocolonigenes; parameters: key to Activation of Nae I cleavage of M13mp18 RF1 DNA: ++++: full activation; ++: about 50% activation; -: no activation
T1 sequence (P50187 1-317): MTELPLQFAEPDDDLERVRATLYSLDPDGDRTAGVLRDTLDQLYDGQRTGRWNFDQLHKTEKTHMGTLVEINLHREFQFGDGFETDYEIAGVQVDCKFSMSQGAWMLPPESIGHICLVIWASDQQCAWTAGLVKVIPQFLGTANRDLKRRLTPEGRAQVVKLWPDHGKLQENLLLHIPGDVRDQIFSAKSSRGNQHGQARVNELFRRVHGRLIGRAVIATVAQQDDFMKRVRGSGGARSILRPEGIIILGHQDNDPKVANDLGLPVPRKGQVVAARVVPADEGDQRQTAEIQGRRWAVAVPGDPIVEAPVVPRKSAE

Nae I [2] = target: T1, Nae I; settings: 2 mM spermidine, SV40 DNA 2.9 nM, 1.1 units Nae I, 1 hour 37° C.
Nae I [3] = target: T1, Nae I; assay: biochemical; settings: 1 h, read-out: Increase in Nae I cleavage of SV40 slow site

NCCCCNCCCN [spermidine]
Spermidine concentration needed to mimic the effect of 1 mM at low salt (Nae I [1]; 1 mM Mg2+ and 50 mM Na+): 6 mM | Spermidine concentration at which the switch occurs (inhibition in presence of activating DNA) (Nae I [1]; 50 mM NaCl and 10 mM MgCl2): 8 mM | Spermidine concentration at which the switch occurs (inhibition in presence of activating DNA) (Nae I [1]; low salt concentration): 1 mM | Effect on cleavage of resistant Nae I sites such as in M13mp18 DNA (Nae I [1]; spermidine at 1 mM, low salt): greatly activated | Spermidine concentration that switches on Nae I cleavage of resistant sites (Nae I [1]; spermidine by itself, low salt conditions): about 1 mM | Nae I cleavage of SV40 slow site (Nae I [2]): 17% | fold induction at 2000 µM (Nae I [3]): 40

CTGGTGGTGGGCGCCGGC (chemistry not given here) [Oligonucleotide duplex 5]
Activation of Nae I cleavage of M13mp18 RF1 DNA (Nae I [1]): -

GCCGGC (chemistry not given here) [Oligonucleotide duplex 7]
Activation of Nae I cleavage of M13mp18 RF1 DNA (Nae I [1]; compared to cleavage caused by an equal concentration of pBR322 Nae I sites): -

GCCGGCGGTGTGGGCAGCTGGTG (chemistry not given here) [Oligonucleotide duplex 6]
Activation of Nae I cleavage of M13mp18 RF1 DNA (Nae I [1]): -

GCGCCGGCGG (chemistry not given here) [Oligonucleotide duplex 4]
Activation of Nae I cleavage of M13mp18 RF1 DNA (Nae I [1]): -

GGGCGCCGGCGGTG (chemistry not given here) [Oligonucleotide duplex 3]
Activation of Nae I cleavage of M13mp18 RF1 DNA (Nae I [1]): ++ (key: ++++: full activation; ++: about 50% activation; -: no activation)

GGGTGCCGGCAGGG (chemistry not given here) [SEQ ID NO: 8]
Activation as activating sequence for Nae I (Nae I [1]; procedures of Example 1): 100%

TGGTGGGCGCCGGCGGTGTGGGCA (TTGGTGGGCGCCGGCGGTGTGGGCA; chemistry not given here) [Oligonucleotide duplex 2]
Activation of Nae I cleavage of M13mp18 RF1 DNA (Nae I [1]): ++++
